PubChem BioAssay (NCI)
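Step 1: Grow cells in 96-well plates. Step 2: Expose to compound for 48 hours at 5 concentrations. Step 3: Interpolate endpoints linearly; if unreached, use highest concentration. GI50 is the concentration that inhibits growth by half. TGI is the concentration that stops growth completely.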

Experiments:
Assay in all cases: inhibition of tumour cell growth, NCI panel, 48 h
HCC-2998 colon = tested on: HCC-2998 colon
OVCAR-8 ovarian = tested on: OVCAR-8 ovarian
SK-MEL-28 melanoma = tested on: SK-MEL-28 melanoma
BT-549 breast = tested on: BT-549 breast
KM12 colon = tested on: KM12 colon
COLO 205 colon = tested on: COLO 205 colon
T-47D breast = tested on: T-47D breast
NCI-H23 lung = tested on: NCI-H23 lung
SF-295 CNS = tested on: SF-295 CNS
UACC-257 melanoma = tested on: UACC-257 melanoma

SMILES | GI50 (HCC-2998 colon) [µM] | TGI (HCC-2998 colon) [µM] | GI50 (OVCAR-8 ovarian) [µM] | TGI (OVCAR-8 ovarian) [µM] | GI50 (SK-MEL-28 melanoma) [µM] | TGI (SK-MEL-28 melanoma) [µM] | GI50 (BT-549 breast) [µM] | TGI (BT-549 breast) [µM] | GI50 (KM12 colon) [µM] | TGI (KM12 colon) [µM] | GI50 (COLO 205 colon) [µM] | TGI (COLO 205 colon) [µM] | GI50 (T-47D breast) [µM] | TGI (T-47D breast) [µM] | GI50 (NCI-H23 lung) [µM] | TGI (NCI-H23 lung) [µM] | GI50 (SF-295 CNS) [µM] | TGI (SF-295 CNS) [µM] | GI50 (UACC-257 melanoma) [µM] | TGI (UACC-257 melanoma) [µM]
CCOC(=O)C(Cc1ccccc1)n1c(O)c(/C=N/c2ncc(Cc3ccc(Cl)cc3Cl)s2)sc1=S (stereo not given) | 2.54 | 42.3 | 2.07 | > 100 | 2.61 | 26.4 | 2.37 | 8.23 | 1.84 | 11.6 | 1.66 | 3.34 | 2.16 | 8.73 | 1.9 | 12.4 | 2.31 | 6.84 | 2.72 | 8.57
COC(=O)C1C(=O)C(C(=O)OC)C2CCC1N2C (stereo not given) | – | > 100 | – | > 100 | – | > 100 | – | 27.3 | – | > 100 | – | > 100 | – | > 100 | – | – | – | > 100 | – | > 100
Cc1ncnc2c1ccn2[C@@H]1C[C@H](Oc2cc(C(F)F)c(F)c3c2CNCC3)[C@@H](O)[C@H]1O | > 100 | > 100 | > 100 | > 100 | > 100 | > 100 | > 100 | > 100 | > 100 | > 100 | > 100 | > 100 | > 100 | > 100 | – | – | > 100 | > 100 | > 100 | > 100
CCNCCS(=O)(=O)NC[C@@]1(c2ccccc2)SC(NC(=O)C(C)(C)C)=NN1C(=O)C(C)(C)C | < 0.01 | > 51.2 | < 0.0117 | > 100 | 11.3 | > 100 | 0.357 | > 100 | < 0.01 | > 100 | < 0.01 | 12.1 | < 0.01 | > 100 | 0.0282 | > 100 | < 0.01 | 1.16 | 11.8 | > 76.9
Cc1c(Br)c(Br)c2c3c1nc(N1CCNCC1)n3CCC2 | 1.81 | 3.51 | 2.08 | 5.46 | 1.79 | 3.39 | 5.36 | 20.2 | 1.72 | 3.2 | 1.86 | 3.63 | 2.35 | 6.36 | 2.01 | 4.22 | 1.86 | 3.68 | 2.13 | 4.2
Cc1cc(NS(=O)(=O)c2ccc(-c3cnc(C4CC4)o3)cc2)ccc1Cl | 1.23 | 11.7 | 0.552 | 17.7 | 2.87 | 20 | 1.06 | 16.6 | 0.187 | 13.4 | 0.305 | 5.8 | 0.323 | 23.3 | 0.57 | 15.6 | 0.0995 | 2.57 | 1.77 | 18.2
Cn1cc(Nc2nccc(-c3ccc4c(c3)CN(C3COC3)CC[C@H]4NC(=O)c3cn(C(C)(C)C)nn3)n2)cn1 | > 100 | > 100 | > 100 | > 100 | 46.9 | > 100 | > 100 | > 100 | 72.6 | > 100 | 30.6 | > 100 | 47.9 | > 100 | > 100 | > 100 | > 100 | > 100 | > 100 | > 100
CN1C(=O)[C@@H](CC2CCCC2)N(C2CCCC2)c2nc(Nc3cc(Cl)c(O)c(Cl)c3)ncc21 | 29.8 | > 100 | 28.4 | > 100 | 22.6 | > 100 | 18.2 | 53.2 | 37.5 | > 100 | 23 | 56.1 | 12.9 | 74.9 | 31.3 | > 100 | 23.3 | 81.9 | 25.1 | > 100
CC(C)(Oc1cccc(N2CCC[C@@H](C(=O)N(Cc3ccc(-c4cn[nH]c4)cc3)C3CC3)C2)c1)C(=O)N1CCNCC1 | 3.06 | 10.7 | 18.6 | 42.7 | 13.1 | 26.1 | 13.3 | 26.6 | 14.8 | 28.8 | 5.91 | 20.1 | 12.6 | 34.3 | 14 | 28.9 | 12.5 | 26 | 12.2 | 25.9
C/C(=N\O)C1CC(CC(=O)O)C1(C)C (stereo not given) | – | > 100 | – | > 100 | – | > 100 | – | > 100 | – | > 100 | – | > 100 | – | > 100 | – | > 100 | – | > 100 | – | > 100
CC[C@]1(O)CC2CN(CCc3c([nH]c4ccccc34)C(C(=O)OC)(c3cc4c(cc3OC)N(C=O)[C@H]3[C@@](O)(C(=O)OC)[C@H](OC(C)=O)[C@]5(CC)[C@@H]6C[C@@H]6CN6CC[C@]43[C@@H]65)C2)C1 (stereo not given in full) | < 0.00325 | 9.23 | < 0.00325 | – | – | – | < 0.00325 | 0.015 | < 0.00325 | 0.00386 | < 0.00325 | < 0.00325 | 0.228 | – | < 0.00325 | – | < 0.00325 | 0.325 | < 0.00325 | 4.37
COc1ccc(/C=C/C(=O)C(=O)/C=C/c2ccc(OC)c(OC)c2)cc1OC | 1.72 | 3.21 | 2.97 | > 100 | – | – | 1.81 | 4.45 | 1.6 | 3.67 | 1.9 | 4.95 | 2.26 | > 100 | 2.99 | > 100 | 3.05 | 31.2 | – | –
Cc1[nH]c(N)nc(=S)c1CCCNc1ccccc1 | – | – | – | > 100 | – | > 100 | – | > 100 | – | > 100 | – | 66.9 | – | > 100 | – | > 100 | – | > 100 | – | > 100
C=C1CC[C@@](C)(c2cc(Br)c(C)cc2OC(C)=O)[C@H]1C | – | – | 13.2 | 27.8 | 11.7 | 24 | 19 | 34.1 | 6.38 | 21.1 | 17.6 | 31.3 | 10.7 | 27.8 | 13.9 | 28.2 | 10.7 | 23.2 | 16.1 | 30.2
